Laboratory results reported in the CombiSolv-Exp solvation set (Vermeire and Green 2021).

Assay: solvent given as SMILES

CCCCCCCCC
Conditions	solvation free energy, 298 K [kcal/mol]
in Brc1ccccc1	-5.75
in C1CCCCC1	-6.23
in C1CCOC1	-5.94
in C1COCCO1	-5.1
in C=CCCCC	-6.1
in C=CCCCCCC	-5.95
in C=CCCCCCCCC	-5.89
in CC1COC(=O)O1	-3.44
in CC#N	-4.12
in CC(=O)N(C)C	-4.53
in CC(=O)O	-4.5
in CC(=O)c1ccccc1	-4.92
in CC(C)=O	-4.99
in CC(C)CC(C)(C)C	-5.95
in CC(C)CCCC(C)CCCC(C)CCCCC(C)CCCC(C)CCCC(C)C	-5.5
in CC(C)CCO	-5.21
in CC(C)O	-5.01
in CC(C)OC(C)C	-5.88
in CCBr	-5.96
in CCC#N	-4.68
in CCC(C)=O	-5.31
in CCCC#N	-5.01
in CCCC(=O)OCC	-5.57
in CCCC(C)=O	-5.41
in CCCCC	-6.12
in CCCCCC	-6.12
in CCCCCC(C)=O	-5.45
in CCCCCCC	-6.06
in CCCCCCCC	-5.98
in CCCCCCCCCC	-5.88
in CCCCCCCCCCCC	-5.79
in CCCCCCCCCCCCCCCC	-5.68
in CCCCCCCCO	-5.29
in CCCCCCOC(C)=O	-5.56
in CCCCO	-5.09
in CCCCOC(C)=O	-5.48
in CCCCOCCCC	-5.95
in CCCO	-4.94
in CCN(CC)CC	-6.06
in CCO	-4.84
in CCOC(=O)c1ccccc1C(=O)OCC	-4.53
in CCOC(C)=O	-5.32
in CCOCC	-5.97
in CCOCCOCCOCC	-5.25
in CCOc1ccccc1	-5.42
in CN1CCCC1=O	-4.3
in CN(C)C=O	-4.3
in CN(C)P(=O)(N(C)C)N(C)C	-4.86
in CNC=O	-3.82
in CO	-4.4
in COC(C)=O	-5.07
in COCCO	-4.28
in COc1ccccc1	-5.35
in CS(C)=O	-3.24
in Cc1ccc(C)cc1	-5.93
in Cc1ccccc1	-5.95
in Cc1ccccn1	-5.45
in ClC(Cl)(Cl)Cl	-6.2
in ClC(Cl)Cl	-6.04
in ClCCCl	-5.32
in ClCCl	-5.72
in Clc1ccccc1	-5.97
in FC(F)(F)C(F)(F)C(F)(F)C(F)(F)C(F)(F)C(F)(F)C(F)(F)C(F)(F)F	-3.92
in FC(F)(F)C(F)(F)C(F)(F)C(F)(F)C(F)(F)C(F)(F)F	-3.96
in Fc1ccccc1	-5.76
in ICI	-3.73
in N#CCCCCC#N	-3.46
in N#Cc1ccccc1	-4.97
in NC=O	-1.66
in NCCO	-2.24
in Nc1ccccc1	-4.09
in O	2.98
in O=C1CCCCC1	-5.24
in O=C1CCCO1	-3.71
in O=CN1CCOCC1	-3.47
in OCCO	-2.03
in OCCOCCO	-2.76
in OCCOCCOCCO	-2.92
in OCCOCCOCCOCCO	-3.13
in OCc1ccccc1	-4.36
in S=C=S	-6.17
in c1ccccc1	-5.89
in c1ccncc1	-5.13

CC(C(=O)O)c1ccc2c(c1)[nH]c1ccc(Cl)cc12 (configuration not stated)
Conditions	solvation free energy, 298 K [kcal/mol]
in O	-15.1

Clc1cc(Cl)c(Cl)c(Cl)c1Cl
Conditions	solvation free energy, 298 K [kcal/mol]
in CCCCCCCCC=CCCCCCCCC(=O)OCC(COC(=O)CCCCCCCC=CCCCCCCCC)OC(=O)CCCCCCCC=CCCCCCCCC	-8.79
in CCCCCCCCO	-8.85
in O	-1.69

CN(C)C(=O)c1ccc([N+](=O)[O-])cc1
Conditions	solvation free energy, 298 K [kcal/mol]
in O	-11.9

CC(F)(Cl)Cl
Conditions	solvation free energy, 298 K [kcal/mol]
in CCCCCCCC(=O)OCC(COC(=O)CCCCCCC)OC(=O)CCCCCCC	-2.89

O=C(O)c1cc(O)c(O)c(O)c1
Conditions	solvation free energy, 298 K [kcal/mol]
in CCO	-19.8

NCc1ccccc1
Conditions	solvation free energy, 298 K [kcal/mol]
in O	-6.34

CCCCCCc1ccccc1
Conditions	solvation free energy, 298 K [kcal/mol]
in CO	-7.13

CBr
Conditions	solvation free energy, 298 K [kcal/mol]
in O	-0.82

CCc1cccnc1
Conditions	solvation free energy, 298 K [kcal/mol]
in O	-4.59

Clc1ccc2c(c1)Oc1cc(Cl)c(Cl)c(Cl)c1O2
Conditions	solvation free energy, 298 K [kcal/mol]
in O	-3.84

O=Cc1ccccc1
Conditions	solvation free energy, 298 K [kcal/mol]
in CCCCCC	-5.53
in CCCCCCC	-5.5
in CCCCCCCCCCCCCCCC	-5.37
in O	-4.02

C1CCOC1
Conditions	solvation free energy, 298 K [kcal/mol]
in CC(=O)N(C)C	-3.96
in CC(C)=O	-4.12
in CC(C)CC(C)(C)C	-3.72
in CC(C)CCCC(C)CCCC(C)CCCCC(C)CCCC(C)CCCC(C)C	-3.35
in CC(C)CCl	-4.2
in CC(C)O	-4.01
in CCC(C)Cl	-4.16
in CCCCCC	-3.68
in CCCCCCC	-3.7
in CCCCCCCC	-3.66
in CCCCCCCCCCCCCCCC	-3.43
in CCCCCCCCO	-3.9
in CCCCCl	-4.19
in CCCCN(C=O)CCCC	-3.89
in CCCCOCCCC	-3.8
in CCCCl	-4.31
in CCCO	-4.02
in CCN1CCCC1=O	-3.95
in CCN(CC)C(C)=O	-3.97
in CCNC(C)=O	-3.89
in CCNC=O	-3.93
in CCO	-4.09
in CCOC(C)=O	-4.11
in CN1CCCC1=O	-4.04
in CN1CCCCC1=O	-3.92
in CNC(C)=O	-3.87
in CO	-4.43
in CS(C)=O	-3.67
in ClC(Cl)(Cl)Cl	-4.28
in ClC(Cl)Cl	-5.12
in ClCCCl	-4.53
in NC=O	-3.69
in O	-3.49
in O=CN1CCOCC1	-3.7
in [2H]O[2H]	-3.5

CC(C)N(N=O)C(C)C
Conditions	solvation free energy, 298 K [kcal/mol]
in CC(C)CC(C)(C)C	-6.07
in O	-5.16

CCCCC(C)=O
Conditions	solvation free energy, 298 K [kcal/mol]
in C1COCCO1	-5.69
in CC(C)CC(C)(C)C	-4.72
in CCCCCC	-4.68
in CCCCCCC	-4.55
in CCCCCCCC	-4.6
in CCCCCCCCCC	-4.61
in CCCCCCCCCCCCCCCC	-4.39
in CCCCCCCCO	-5.02
in CO	-5.21
in ClC(Cl)(Cl)Cl	-5.36
in NC=O	-4.46
in O	-3.3
in [2H]O[2H]	-3.24

Cc1cccc(O)c1C
Conditions	solvation free energy, 298 K [kcal/mol]
in CC(C)CC(C)(C)C	-6.27
in CCCCCC	-6.67
in O	-6.12
